Laboratory results reported in the SangsterLogP compilation.

Test: method code SF-AS, from DOI: 10.1002/ardp.19893220504, PMID: 2569302
Conditions: pH 7.4

| SMILES | logD |
| --- | --- |
| COc1ccc2c(=O)c(C)c(-c3ccc(F)cc3)oc2c1CN1CCCC1 | 2.13 |
| COc1ccc2c(=O)c(C)c(-c3ccc(F)cc3)oc2c1CN(C)C | 1.97 |
| COc1ccc2c(=O)c(C)c(-c3ccc(C)cc3)oc2c1CN1CCOCC1 | 3.71 |
| COc1ccc2c(=O)c(C)c(-c3ccc(F)cc3)oc2c1CN1CCCCC1 | 2.71 |
| COc1ccc2c(=O)c(C)c(-c3ccc(Cl)cc3)oc2c1CN1CCCC1 | 2.75 |
| COc1ccc2c(=O)c(C)c(-c3ccc(C)cc3)oc2c1CN1CCCC1 | 2.5 |
| CCN(CC)Cc1c(OC)ccc2c(=O)c(C)c(-c3ccc(Cl)cc3)oc12 | 2.66 |
| CCN(CC)Cc1c(OC)ccc2c(=O)c(C)c(-c3ccccc3)oc12 | 1.99 |
| COc1ccc2c(=O)c(C)c(-c3ccc(F)cc3)oc2c1CN1CCOCC1 | 3.26 |
| COc1ccc2c(=O)c(C)c(-c3ccc(Cl)cc3)oc2c1CN1CCOCC1 | 3.94 |

Continued, values first:

| logD | SMILES |
| --- | --- |
| 3.13 | COc1ccc2c(=O)c(C)c(-c3ccc(C)cc3)oc2c1CN1CCCCC1 |
| 1.83 | COc1ccc2c(=O)c(C)c(-c3ccc([N+](=O)[O-])cc3)oc2c1CN1CCCC1 |
| 1.7 | CCN(CC)Cc1c(OC)ccc2c(=O)c(C)c(-c3ccc([N+](=O)[O-])cc3)oc12 |
| 2.62 | COc1ccc2c(=O)c(C)c(-c3ccc(Cl)cc3)oc2c1CN(C)C |
| 2.63 | COc1ccc2c(=O)c(C)c(-c3ccccc3)oc2c1CN1CCCCC1 |
| 3.02 | COc1ccc2c(=O)c(C)c(-c3ccc([N+](=O)[O-])cc3)oc2c1CN1CCOCC1 |
| 2.53 | COc1ccc2c(=O)c(C)c(-c3ccc([N+](=O)[O-])cc3)oc2c1CN1CCCCC1 |
| 2.41 | COc1ccc2c(=O)c(C)c(-c3ccc(C)cc3)oc2c1CN(C)C |
| 1.99 | CCN(CC)Cc1c(OC)ccc2c(=O)c(C)c(-c3ccc(F)cc3)oc12 |
| 3.46 | COc1ccc2c(=O)c(C)c(-c3ccc(Cl)cc3)oc2c1CN1CCCCC1 |
| 2.46 | CCN(CC)Cc1c(OC)ccc2c(=O)c(C)c(-c3ccc(C)cc3)oc12 |
| 1.73 | COc1ccc2c(=O)c(C)c(-c3ccc([N+](=O)[O-])cc3)oc2c1CN(C)C |
| 3.25 | COc1ccc2c(=O)c(C)c(-c3ccccc3)oc2c1CN1CCOCC1 |
| 1.93 | COc1ccc2c(=O)c(C)c(-c3ccccc3)oc2c1CN(C)C |
